One data set has as its system Canidae. Conditions: acute; oral; Dog Other; mortality.
For the next data set, the system named is Pleurozium sp. The following applies: acute; duration: 72 hours; biomass.
The next data set has as its system Apis mellifera. Conditions: acute, duration: 48 hours, mortality.
The next data set has as its system Oryctolagus sp. The following applies: developmental; development.
For another data set, the system named is Tagia sp. The following applies: acute; mortality.
The test system of another data set is Anas platyrhynchos. The following applies: oral, mortality.
Another data set concerns Daphnia magna. The following applies: chronic/long-term; duration: 21 days; reproduction.
The test system of another data set is Mus musculus. The following applies: chronic; duration: 2 years; histopathology: nonneoplastic.
Another data set relates to Rattus norvegicus. The following applies: for NOAEL: histopathology: nonneoplastic.
The next data set has as its system Oncorhynchus mykiss. The following applies: mortality.
A further data set concerns Aphidius rhopalosiphi. As to the kind of experiment: LR50; higher = less toxic. The following applies: not reported; mortality.
Another data set concerns Typhlodromus pyri. Nature of the data set: LR50; higher = less toxic. Conditions: not reported; mortality.

Converted amounts (≈) assume the structure as drawn. Bounds are passed on as bounds.

The term NOAEL denotes the highest dose or exposure tested at which no adverse effect was seen. Consider `CCOc1ccc(C(C)(C)COCc2cccc(Oc3ccccc3)c2)cc1` [Etofenprox], for which the LD50 with Canidae was above 5000 mg/kg; in the data set on Apis mellifera (dermal), 0.015 µg/piece; with Apis mellifera (oral, unspecified), 0.024 µg/piece; in the data set with Anas platyrhynchos (acute, unspecified) it was above 2000 mg/kg; in the data set with Rattus norvegicus (acute, oral, mortality) it was above 2000 mg/kg. In addition, the NOEC with Pleurozium sp. came out at 0.15 mg/L; in the data set on Daphnia magna, 5.4e-05 mg/L; in the data set on Oncorhynchus mykiss (chronic/long-term, duration: 21 days), 0.0021 mg/L. Further, the NOAEL was determined as 100 mg/kg-day in the data set with Oryctolagus sp.; 3.1 mg/kg-day with Mus musculus; 3.7 mg/kg-day in the data set with Rattus norvegicus (chronic, duration: 2 years); 20 mg/kg-day in the data set with Rattus norvegicus (subchronic, duration: 13 weeks, oral, diet). The LC50 with Tagia sp. is above 47.2 mg/kg; in the data set with Anas platyrhynchos (short-term, feed) it was above 1280 mg/kg-day; in the data set with Colinus virginianus (acute, oral, diet, mortality), above 806 mg/kg-day; in the data set with Oncorhynchus mykiss (acute, duration: 96 hours), 2.7 ng/mL (≈ 7.17 nM). In addition, in the data set on Colinus virginianus (reproduction developmental), the NOEL worked out at 89.6 mg/kg-day. For the same molecule, the LR50 with Aphidius rhopalosiphi amounted to 0.42 g/ha; with Typhlodromus pyri it was 0.7 g/ha.
